Experimental data published in publication PMC6801739, “Antitumor Activity of a Novel Tyrosine Kinase Inhibitor AIU2001 Due to Abrogation of the DNA Damage Repair in Non-Small Cell Lung Cancer Cells” (International Journal of Molecular Sciences, 2019).
pIC50: −log10 of the molar value.

Assays:
c-KIT (V560G) = biological target: T1, c-KIT (V560G) (Homo sapiens, UniProt P10721, V560G); experiment: In vitro kinase assay, IC50 (Reaction Biology Corp.); format: biochemical
T1 construct: purchased Eurofins Pharma Discovery (KinaseProfiler); IC50 values by Reaction Biology Corp
T1 sequence (P10721 26-976 V560G): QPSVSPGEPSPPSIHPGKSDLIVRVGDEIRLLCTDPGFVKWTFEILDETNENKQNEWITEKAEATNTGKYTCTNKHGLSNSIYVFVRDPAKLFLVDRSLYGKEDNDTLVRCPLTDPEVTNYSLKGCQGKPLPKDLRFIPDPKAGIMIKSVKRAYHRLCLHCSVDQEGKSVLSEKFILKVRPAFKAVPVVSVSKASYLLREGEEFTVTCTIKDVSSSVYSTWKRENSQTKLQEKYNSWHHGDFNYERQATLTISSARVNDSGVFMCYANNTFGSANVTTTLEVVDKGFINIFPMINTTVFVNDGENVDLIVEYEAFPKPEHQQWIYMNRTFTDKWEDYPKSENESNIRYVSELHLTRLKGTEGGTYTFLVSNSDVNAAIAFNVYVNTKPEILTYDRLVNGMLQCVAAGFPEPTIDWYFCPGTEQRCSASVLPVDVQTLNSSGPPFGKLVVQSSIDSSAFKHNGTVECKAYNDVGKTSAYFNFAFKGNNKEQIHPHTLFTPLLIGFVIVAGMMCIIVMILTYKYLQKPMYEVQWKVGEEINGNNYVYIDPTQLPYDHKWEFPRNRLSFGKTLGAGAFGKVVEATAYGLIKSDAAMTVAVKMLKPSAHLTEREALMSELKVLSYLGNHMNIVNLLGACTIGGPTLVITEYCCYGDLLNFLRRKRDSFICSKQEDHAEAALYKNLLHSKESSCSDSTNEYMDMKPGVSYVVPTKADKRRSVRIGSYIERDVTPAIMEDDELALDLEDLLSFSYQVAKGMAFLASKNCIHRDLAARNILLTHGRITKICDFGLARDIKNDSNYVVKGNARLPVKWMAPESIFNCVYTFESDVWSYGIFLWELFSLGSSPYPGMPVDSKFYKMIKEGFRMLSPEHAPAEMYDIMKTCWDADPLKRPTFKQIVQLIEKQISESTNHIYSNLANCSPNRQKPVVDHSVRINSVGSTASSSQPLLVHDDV

ALK = biological target: T2, ALK (Homo sapiens, UniProt Q9UM73); experiment: Kinase profiling at 10 μM (Eurofins); format: biochemical; conditions: read-out: Inhibitory activity
T2 construct: purchased Eurofins Pharma Discovery (KinaseProfiler); IC50 values by Reaction Biology Corp

ARK5 = biological target: T3, ARK5 (Homo sapiens, UniProt O60285); experiment: Kinase profiling at 10 μM (Eurofins); format: biochemical; conditions: read-out: Inhibitory activity
T3 construct: purchased Eurofins Pharma Discovery (KinaseProfiler); IC50 values by Reaction Biology Corp
T3 sequence (O60285 whole entry): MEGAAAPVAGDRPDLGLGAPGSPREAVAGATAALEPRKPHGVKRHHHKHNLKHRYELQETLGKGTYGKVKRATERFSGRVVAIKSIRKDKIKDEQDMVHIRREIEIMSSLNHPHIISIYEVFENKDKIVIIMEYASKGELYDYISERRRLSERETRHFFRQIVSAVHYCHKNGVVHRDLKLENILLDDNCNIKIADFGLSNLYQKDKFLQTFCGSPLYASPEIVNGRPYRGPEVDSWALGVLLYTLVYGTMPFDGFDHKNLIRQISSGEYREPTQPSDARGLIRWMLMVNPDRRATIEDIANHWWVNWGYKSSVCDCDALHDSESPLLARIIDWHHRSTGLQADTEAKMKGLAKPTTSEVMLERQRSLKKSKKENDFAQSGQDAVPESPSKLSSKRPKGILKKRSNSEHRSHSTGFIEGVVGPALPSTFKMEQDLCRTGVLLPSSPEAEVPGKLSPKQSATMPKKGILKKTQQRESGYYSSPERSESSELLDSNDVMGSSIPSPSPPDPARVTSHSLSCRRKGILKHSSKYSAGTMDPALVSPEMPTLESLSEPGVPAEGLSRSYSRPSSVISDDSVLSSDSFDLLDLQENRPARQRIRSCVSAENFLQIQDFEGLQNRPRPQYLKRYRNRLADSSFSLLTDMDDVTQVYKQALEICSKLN

CDK5/p35 = biological target: T4, CDK5/p35 (Homo sapiens, UniProt Q00535); experiment: Kinase profiling at 10 μM (Eurofins); format: biochemical; conditions: read-out: Inhibitory activity
T4 construct: purchased Eurofins Pharma Discovery (KinaseProfiler); IC50 values by Reaction Biology Corp
T4 sequence (Q00535 whole entry): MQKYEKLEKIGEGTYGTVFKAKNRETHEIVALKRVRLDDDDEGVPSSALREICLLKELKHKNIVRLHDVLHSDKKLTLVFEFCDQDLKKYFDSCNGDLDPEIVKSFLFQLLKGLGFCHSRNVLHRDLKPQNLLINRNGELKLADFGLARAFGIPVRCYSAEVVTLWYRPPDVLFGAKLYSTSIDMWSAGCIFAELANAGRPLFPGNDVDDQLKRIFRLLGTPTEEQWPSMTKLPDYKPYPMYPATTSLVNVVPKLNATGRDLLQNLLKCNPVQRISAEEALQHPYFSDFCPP
T4 sequence (Q15078 whole entry partner): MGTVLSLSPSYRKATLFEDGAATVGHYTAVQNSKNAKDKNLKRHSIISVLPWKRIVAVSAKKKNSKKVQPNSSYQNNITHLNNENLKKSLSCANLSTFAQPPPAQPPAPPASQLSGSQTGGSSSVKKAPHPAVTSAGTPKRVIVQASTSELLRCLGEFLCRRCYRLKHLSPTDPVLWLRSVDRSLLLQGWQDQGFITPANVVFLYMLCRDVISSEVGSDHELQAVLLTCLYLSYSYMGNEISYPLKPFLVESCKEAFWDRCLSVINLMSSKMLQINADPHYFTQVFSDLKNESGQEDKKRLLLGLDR

c-KIT (D816H) = biological target: T5, c-KIT (D816H) (Homo sapiens, UniProt P10721, D816H); experiment: Kinase profiling at 10 μM (Eurofins); format: biochemical; conditions: read-out: Inhibitory activity
T5 construct: purchased Eurofins Pharma Discovery (KinaseProfiler); IC50 values by Reaction Biology Corp
T5 sequence (P10721 26-976 D816H): as the sequence (P10721 26-976 V560G) above, with G535V, D791H counted along it

EGFR(T790M,L858R) = biological target: T6, EGFR(T790M,L858R) (Homo sapiens, UniProt P00533, L858R/T790M); experiment: Kinase profiling at 10 μM (Eurofins); format: biochemical; conditions: read-out: Inhibitory activity
T6 construct: purchased Eurofins Pharma Discovery (KinaseProfiler); IC50 values by Reaction Biology Corp

FAK = biological target: T7, FAK (Homo sapiens, UniProt Q05397); experiment: Kinase profiling at 10 μM (Eurofins); format: biochemical; conditions: read-out: Inhibitory activity
T7 construct: purchased Eurofins Pharma Discovery (KinaseProfiler); IC50 values by Reaction Biology Corp
T7 sequence (Q05397 whole entry): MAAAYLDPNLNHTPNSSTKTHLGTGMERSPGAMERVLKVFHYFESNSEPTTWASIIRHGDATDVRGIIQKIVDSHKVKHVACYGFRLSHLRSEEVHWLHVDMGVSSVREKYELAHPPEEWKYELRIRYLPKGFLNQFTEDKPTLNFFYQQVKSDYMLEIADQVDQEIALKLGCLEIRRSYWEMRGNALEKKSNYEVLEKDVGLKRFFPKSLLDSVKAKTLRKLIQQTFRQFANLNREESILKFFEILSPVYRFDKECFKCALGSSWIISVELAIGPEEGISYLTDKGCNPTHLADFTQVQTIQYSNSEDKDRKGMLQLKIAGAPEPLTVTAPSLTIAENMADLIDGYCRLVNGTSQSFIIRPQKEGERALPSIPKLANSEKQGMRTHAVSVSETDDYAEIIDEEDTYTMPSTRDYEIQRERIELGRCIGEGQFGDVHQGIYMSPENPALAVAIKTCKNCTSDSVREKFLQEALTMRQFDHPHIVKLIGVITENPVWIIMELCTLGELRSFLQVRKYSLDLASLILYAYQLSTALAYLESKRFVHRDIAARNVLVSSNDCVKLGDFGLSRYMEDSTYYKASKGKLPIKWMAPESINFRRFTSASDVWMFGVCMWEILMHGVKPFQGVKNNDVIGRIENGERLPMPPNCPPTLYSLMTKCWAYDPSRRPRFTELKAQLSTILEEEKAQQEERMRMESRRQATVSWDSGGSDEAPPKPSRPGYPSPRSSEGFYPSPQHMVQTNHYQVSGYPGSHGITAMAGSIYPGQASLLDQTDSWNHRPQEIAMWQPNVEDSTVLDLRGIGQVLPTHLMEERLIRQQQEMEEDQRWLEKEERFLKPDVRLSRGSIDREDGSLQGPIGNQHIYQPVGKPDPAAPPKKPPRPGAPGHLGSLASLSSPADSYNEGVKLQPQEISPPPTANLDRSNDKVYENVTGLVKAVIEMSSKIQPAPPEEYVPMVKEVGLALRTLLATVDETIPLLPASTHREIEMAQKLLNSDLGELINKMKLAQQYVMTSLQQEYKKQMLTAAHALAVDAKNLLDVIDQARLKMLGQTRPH

MAPK2 = biological target: T8, MAPK2 (Homo sapiens, UniProt P28482); experiment: Kinase profiling at 10 μM (Eurofins); format: biochemical; conditions: read-out: Inhibitory activity
T8 construct: purchased Eurofins Pharma Discovery (KinaseProfiler); IC50 values by Reaction Biology Corp

MEK1 = biological target: T9, MEK1 (Homo sapiens, UniProt Q02750); experiment: Kinase profiling at 10 μM (Eurofins); format: biochemical; conditions: read-out: Inhibitory activity
T9 construct: purchased Eurofins Pharma Discovery (KinaseProfiler); IC50 values by Reaction Biology Corp

PKCα = biological target: T10, PKCα (Homo sapiens, UniProt P17252); experiment: Kinase profiling at 10 μM (Eurofins); format: biochemical; conditions: read-out: Inhibitory activity
T10 construct: purchased Eurofins Pharma Discovery (KinaseProfiler); IC50 values by Reaction Biology Corp

TAK1 = biological target: T11, TAK1 (Homo sapiens, UniProt O43318); experiment: Kinase profiling at 10 μM (Eurofins); format: biochemical; conditions: read-out: Inhibitory activity
T11 construct: purchased Eurofins Pharma Discovery (KinaseProfiler); IC50 values by Reaction Biology Corp
T11 sequence (O43318 1-303 limits assumed): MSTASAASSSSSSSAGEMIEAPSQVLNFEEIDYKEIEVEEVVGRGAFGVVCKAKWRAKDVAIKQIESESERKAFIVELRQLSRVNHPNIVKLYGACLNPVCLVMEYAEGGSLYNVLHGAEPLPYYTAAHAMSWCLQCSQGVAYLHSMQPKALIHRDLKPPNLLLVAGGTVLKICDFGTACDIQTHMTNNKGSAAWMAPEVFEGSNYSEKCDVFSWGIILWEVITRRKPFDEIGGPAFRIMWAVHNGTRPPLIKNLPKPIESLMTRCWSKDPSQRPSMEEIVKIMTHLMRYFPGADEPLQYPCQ

TGFBR1 = biological target: T12, TGFBR1 (Homo sapiens, UniProt P36897); experiment: Kinase profiling at 10 μM (Eurofins); format: biochemical; conditions: read-out: Inhibitory activity
T12 construct: purchased Eurofins Pharma Discovery (KinaseProfiler); IC50 values by Reaction Biology Corp
T12 sequence (P36897 34-503): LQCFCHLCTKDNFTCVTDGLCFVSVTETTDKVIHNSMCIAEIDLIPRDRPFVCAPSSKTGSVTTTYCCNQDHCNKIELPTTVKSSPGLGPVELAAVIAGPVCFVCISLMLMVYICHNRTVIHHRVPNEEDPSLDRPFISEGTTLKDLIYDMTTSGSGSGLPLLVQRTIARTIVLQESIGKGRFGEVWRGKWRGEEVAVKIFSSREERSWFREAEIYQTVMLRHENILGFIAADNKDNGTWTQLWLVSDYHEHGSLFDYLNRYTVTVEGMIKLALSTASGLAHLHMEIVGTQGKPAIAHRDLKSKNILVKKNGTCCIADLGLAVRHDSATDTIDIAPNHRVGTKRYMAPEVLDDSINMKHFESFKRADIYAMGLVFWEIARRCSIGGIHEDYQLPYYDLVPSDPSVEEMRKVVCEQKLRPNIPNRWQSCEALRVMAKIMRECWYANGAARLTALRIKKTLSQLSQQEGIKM

PI3 Kinase (p110a/p85a) = biological target: T13, PI3 Kinase (p110a/p85a) (Homo sapiens, UniProt P42336); experiment: Kinase profiling at 10 μM (Eurofins); format: biochemical; conditions: read-out: Inhibitory activity
T13 construct: purchased Eurofins Pharma Discovery (KinaseProfiler); IC50 values by Reaction Biology Corp

A549 xenografts = experiment: A549 tumor xenograft mouse model; format: in vivo, BALB/c nu/nu mice; conditions: 20 mg/kg i.p. once per two or three days, five times
Protocol: We next determined whether the antitumor effect associated with in vitro AIU2001 treatment could be translated into an in vivo xenograft mouse model. Mice were subcutaneously (s.c.) implanted with A549 cells in the right hind leg. When the tumors were palpable (average […]: 150 mm^3; 14days post-implantation), mice were intraperitoneally (i.p.) administered 20 mg/kg AIU2001 or DMSO once per two or three days for five times in total. […] At necropsy, the average tumor weight of mice treated with AIU2001 or DMSO was 1.2 g or 2.8 g, respectively (Figure 2B,C).
Figure 2 AIU2001 inhibited tumor growth of A549 xenografts in nude mice. (A) A549 cells were s.c. injected into the thigh of the right hind leg of BALB/c nu/nu mice (n = 4/group). Two weeks after tumor cell injection, AIU2001 (20 mg/kg) or DMSO was administered (i.p.) once per two or three days for five times in total. The longest (L) and shortest (W) tumor axes were measured, and tumor volume (mm^3) was calculated as L × W^2/2. The data shown represent the average tumor volume (* p < 0.05). (B) The weight of the resected tumors was measured at the end of the experiment (*** p < 0.001). (C) Image of resected tumors from mice. (D) The body weights of A549 tumor xenograft mice were determined twice weekly during the experiments.
A549 human lung cancer cell xenografts were initially established by s.c. implanting 1 × 10^6 cultured cells into the thigh of the right hind leg of six week old mice. When tumor volumes had reached approximately 150 mm^3, AIU2001 ([…]) was administered i.p. once per two or three days for five times in total. All animal experiments were reviewed and approved by the Institutional Animal Care & Use Committee of Korea Institute of Radiological and Medical Sciences (kirams2018-0063, 6 December 2018).
Two axes of the tumor (L, longest axis; W, shortest axis) were measured twice per week after irradiation using Vernier calipers. Tumor volume was calculated as (L × W^2)/2 (mm^3).

A549 cells [1] = experiment: Annexin V/PI flow cytometric analysis of apoptosis; format: cell-based, human; conditions: 10 µM, 48 h
Protocol: (§1) Annexin V assays were performed according to the manufacturer’s protocol (BD Pharmingen, San Diego, CA, USA). Briefly, 10,000 cells were plated into 60-mm plates and treated with varying concentrations of AIU2001 for 48 h. The cells were harvested and incubated with 4 μL allophycocyanin (APC)-conjugated annexin V (20 μg/mL) and 4 μL PI (50 μg/mL) for 15 min. Fluorescence analyses were performed using flow cytometry (CyFlow Cube 6; Sysmexpartec, Goerlitz, Germany). Cells were classified as early apoptotic (annexin V-positive/PI-negative), late apoptotic/necrotic (annexin V-positive/PI-positive), necrotic/dead (annexin V-negative/PI-positive), and live (annexin V-negative/PI-negative). Flow cytometry data was analyzed using FlowJo software (TreeStar Inc., Ashland, OR, USA).

H1299 cells [2] = experiment: Annexin V/PI flow cytometric analysis of apoptosis; format: cell-based, human; conditions: 10 µM, 48 h
Protocol: as §1

A549 cells [3] = experiment: γ-H2AX immunofluorescence foci assay; format: cell-based, human; conditions: 5 μM
Protocol: (§2) For γ-H2AX and 4′,6-diamidino-2-phenylindole (DAPI) staining, cells were fixed in 4% paraformaldehyde for 15 min at room temperature and permeabilized with 0.1% Triton X-100 in PBS for 20 min. The cells were then incubated with 1:200 dilution of anti-phosho-H2AX (Ser139) antibody overnight at 4 °C. AlexaFluor 594-conjugated anti-mouse IgG antibody (Abcam, Cambridge, UK) was used at 1:400 dilution for 1 h at room temperature. The slides were mounted in mounting medium (DAKO, Santa Clara, CA, USA) with DAPI (ThermoFisher Scientific) before imaging. Images were acquired using an LSM880 laser scanning microscope (ZEISS, Jena, Germany). Fluorescent images were captured using the appropriate filters. Images were analyzed using the Image J and ZEN software.

H1299 cells [4] = experiment: γ-H2AX immunofluorescence foci assay; format: cell-based, human; conditions: 5 μM
Protocol: as §2

Q: Which results are given for `Brc1ccc(-c2cnc(Nc3cccc4ccccc34)o2)cc1` [AIU2001, 5-(4-bromophenyl)-N-(naphthalen-1-yl) oxazol-2-amine]?
A: pIC50 (c-KIT (V560G)): 7.27; inhibition at 10 µM (ALK): 0%; inhibition at 10 µM (ARK5): 75%; inhibition at 10 µM (CDK5/p35): 58%; inhibition at 10 µM (c-KIT (D816H)): 48%; inhibition at 10 µM (EGFR(T790M,L858R)): 4%; inhibition at 10 µM (FAK): 16%; inhibition at 10 µM (MAPK2): 19%; inhibition at 10 µM (MEK1): 0%; inhibition at 10 µM (PKCα): 9%; inhibition at 10 µM (TAK1): 15%; inhibition at 10 µM (TGFBR1): 12%; inhibition at 10 µM (PI3 Kinase (p110a/p85a)): 7%; Average tumor weight at necropsy (A549 xenografts): 1.2 g; Body weight versus control mice (A549 xenografts): did not differ; Inhibition of tumor growth compared to the vehicle (A549 xenografts): 48.3%; Increase in early and late apoptotic cells (A549 cells [1]): 4.2 fold; Increase in early and late apoptotic cells (H1299 cells [2]): 6.7 fold; γ-H2AX foci (A549 cells [3]): high levels of γ-H2AX foci; γ-H2AX foci (H1299 cells [4]): high levels of γ-H2AX foci
